This passage reports IC50 results from US20140163026A1, “8-ETHYL-6-(ARYL)PYRIDO[2,3-D]PYRIMIDIN-7(8H)-ONES FOR THE TREATMENT OF NERVOUS SYSTEM DISORDERS AND CANCER” (Afraxis Holdings, Inc., priority 2011, published 2014).

Holding throughout (format): biochemical
For test [1], the target named is PAK4 (Homo sapiens, UniProt O96013). Kind of test: In vitro PAK inhibition assay (SelectScreen, Ser/Thr 20 peptide). A digest of the protocol: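 FRET-based Ser/Thr 20 peptide phosphorylation: 0.1-0.75 ng PAK4, 2 μM peptide in 50 mM HEPES pH 7.5, 10 mM MgCl2, 1 mM EGTA, 0.01% BRIJ-35, 1% DMSO; 60 min at room temperature, then 60 min protease development. 10-point 3-fold titrations; IC50 from sigmoidal fit.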

In test [2] the target is PAK2 (PAK65) (Homo sapiens, UniProt Q13177). Described as above. A digest of the protocol:
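FRET-based peptide cleavage assay: 0.29-6 ng PAK2 and 2 μM Ser/Thr 20 peptide in 50 mM HEPES pH 7.5, 10 mM MgCl2, 1 mM EGTA, 0.01% BRIJ-35, 1% DMSO final. Kinase reaction 60 min at room temperature, then 60 min development; 10-point 3-fold titrations, percent phosphorylation from fluorescence.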

In test [3] the target is PAK1 (Homo sapiens, UniProt Q13153). In words: In vitro PAK inhibition assay (SelectScreen, Ser/Thr 19 peptide). The procedure, abridged:
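Kinase reaction ran in 50 mM HEPES pH 7.5, 0.01% BRIJ-35, 10 mM MgCl2, 1 mM EGTA with Ser/Thr 19 peptide for 60 min at room temperature, followed by 60 min protease development. Fluorescence gave percent phosphorylation. Compounds were tested as 10-point, 3-fold titrations in 1% DMSO final.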

Test [4] has as its target PAK3 (Homo sapiens, UniProt O75914). In words: In vitro PAK inhibition assay (SelectScreen, Ser/Thr 20 peptide). A digest of the protocol: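 PAK3 phosphorylation of Ser/Thr 20 peptide in 50 mM HEPES pH 7.5, 0.01% BRIJ-35, 10 mM MgCl2, 1 mM EGTA, 1% DMSO final; 60 min at room temperature, then 60 min development reaction with fluorescence read-out. 10-point 3-fold titrations; percent phosphorylation from 0% and 100% phosphopeptide controls.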

PAK2 (PAK65), sequence (Q13177 whole entry): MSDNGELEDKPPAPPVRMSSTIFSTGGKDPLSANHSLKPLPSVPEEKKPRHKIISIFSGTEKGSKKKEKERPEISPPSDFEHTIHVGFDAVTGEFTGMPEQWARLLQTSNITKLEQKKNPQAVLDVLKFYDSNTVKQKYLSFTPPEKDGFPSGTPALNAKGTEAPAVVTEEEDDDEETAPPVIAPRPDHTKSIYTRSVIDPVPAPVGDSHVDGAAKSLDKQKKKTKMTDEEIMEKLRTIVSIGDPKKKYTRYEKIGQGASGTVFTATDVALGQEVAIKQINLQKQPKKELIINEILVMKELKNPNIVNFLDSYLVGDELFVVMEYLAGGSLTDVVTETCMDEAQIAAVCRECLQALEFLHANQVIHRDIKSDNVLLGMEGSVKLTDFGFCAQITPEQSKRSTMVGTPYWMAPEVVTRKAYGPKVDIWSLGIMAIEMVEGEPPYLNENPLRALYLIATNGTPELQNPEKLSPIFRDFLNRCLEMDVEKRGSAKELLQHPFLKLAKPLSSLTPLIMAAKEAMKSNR
PAK3, sequence (O75914 whole entry): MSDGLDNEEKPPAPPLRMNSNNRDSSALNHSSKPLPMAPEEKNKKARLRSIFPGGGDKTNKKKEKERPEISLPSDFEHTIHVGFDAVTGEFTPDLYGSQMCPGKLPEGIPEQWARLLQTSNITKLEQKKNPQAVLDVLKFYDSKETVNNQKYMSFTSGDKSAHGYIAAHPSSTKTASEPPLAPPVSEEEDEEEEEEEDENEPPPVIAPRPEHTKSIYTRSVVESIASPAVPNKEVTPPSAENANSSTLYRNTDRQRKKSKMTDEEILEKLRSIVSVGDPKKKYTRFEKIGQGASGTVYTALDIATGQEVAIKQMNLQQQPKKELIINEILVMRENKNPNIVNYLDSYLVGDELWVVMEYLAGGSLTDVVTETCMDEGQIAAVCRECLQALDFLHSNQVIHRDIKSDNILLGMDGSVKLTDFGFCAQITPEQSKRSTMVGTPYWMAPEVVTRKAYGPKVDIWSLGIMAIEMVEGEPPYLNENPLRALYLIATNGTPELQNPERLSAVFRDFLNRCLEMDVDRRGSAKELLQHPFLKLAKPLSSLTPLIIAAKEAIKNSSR
PAK4, sequence (O96013 whole entry): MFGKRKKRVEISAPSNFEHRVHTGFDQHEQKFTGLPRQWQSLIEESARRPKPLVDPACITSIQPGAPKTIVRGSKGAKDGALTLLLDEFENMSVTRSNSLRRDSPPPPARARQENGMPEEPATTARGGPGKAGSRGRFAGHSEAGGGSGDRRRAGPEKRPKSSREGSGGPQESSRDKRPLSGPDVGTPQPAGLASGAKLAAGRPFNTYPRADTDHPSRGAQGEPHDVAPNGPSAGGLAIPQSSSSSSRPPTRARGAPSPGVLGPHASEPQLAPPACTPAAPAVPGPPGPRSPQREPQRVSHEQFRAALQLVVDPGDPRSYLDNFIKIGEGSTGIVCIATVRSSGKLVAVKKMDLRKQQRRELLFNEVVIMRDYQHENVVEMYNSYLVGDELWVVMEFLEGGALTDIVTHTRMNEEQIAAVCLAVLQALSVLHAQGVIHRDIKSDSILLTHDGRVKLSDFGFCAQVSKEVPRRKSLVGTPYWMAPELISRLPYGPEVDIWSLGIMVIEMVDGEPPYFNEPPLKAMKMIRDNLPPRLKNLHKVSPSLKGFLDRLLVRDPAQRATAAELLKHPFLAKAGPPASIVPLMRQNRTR
PAK1, sequence (Q13153 whole entry): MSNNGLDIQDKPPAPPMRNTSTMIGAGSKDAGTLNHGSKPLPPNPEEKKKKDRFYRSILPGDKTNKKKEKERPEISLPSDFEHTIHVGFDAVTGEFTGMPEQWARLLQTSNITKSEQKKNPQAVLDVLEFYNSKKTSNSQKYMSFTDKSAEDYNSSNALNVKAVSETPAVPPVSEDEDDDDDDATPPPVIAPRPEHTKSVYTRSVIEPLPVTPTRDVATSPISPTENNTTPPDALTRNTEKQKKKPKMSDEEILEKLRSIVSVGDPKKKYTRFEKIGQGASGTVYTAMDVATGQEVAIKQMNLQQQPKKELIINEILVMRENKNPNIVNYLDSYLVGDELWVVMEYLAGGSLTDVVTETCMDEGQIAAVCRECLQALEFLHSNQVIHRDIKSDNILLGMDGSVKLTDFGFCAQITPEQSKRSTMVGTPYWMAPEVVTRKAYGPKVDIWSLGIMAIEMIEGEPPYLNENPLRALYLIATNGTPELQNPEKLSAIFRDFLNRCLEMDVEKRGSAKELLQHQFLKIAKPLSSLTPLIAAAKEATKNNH

What is called IC50 is the point on the concentration scale where inhibition reaches its midpoint. With `CCn1c(=O)c(-c2ccc(-c3cnn(C)c3)cc2Cl)cc2cnc(Nc3ccc(N4CCN(C)CC4)cc3)nc21`, the IC50 is at least 5000 nM in test [1], below 50 nM in test [2], below 50 nM in test [3] and 50 to 500 nM in test [4].

As for `CCn1c(=O)c(-c2ccc(-c3cnn(C)c3)cc2)cc2cnc(Nc3ccc(N4CCN(C)CC4)cc3)nc21`, the IC50 in test [1] was at least 5000 nM; in test [2], 50 to 500 nM; in test [3], 50 to 500 nM; in test [4], 500 to 5000 nM.

Turning to `CCn1c(=O)c(-c2ccc(-c3cccc4[nH]ccc34)cc2Cl)cc2cnc(Nc3ccc(N4CCN(C)CC4)cc3)nc21`, the IC50 in test [1] is at least 5000 nM; in test [2] it was 50 to 500 nM; in test [3] it was below 50 nM; in test [4] it was 50 to 500 nM.

Take `CCn1c(=O)c(-c2ccc(-c3cccc4ncccc34)cc2Cl)cc2cnc(Nc3ccc(N4CCN(C)CC4)cc3)nc21`: the IC50 in test [1] is at least 5000 nM; in test [2], 50 to 500 nM; in test [3], 50 to 500 nM; in test [4], 50 to 500 nM.

As to `CCn1c(=O)c(-c2ccc(-c3cccnc3F)cc2Cl)cc2cnc(Nc3ccc(CCN4CCOCC4)cc3)nc21`, the IC50 in test [1] was at least 5000 nM; in test [2], 50 to 500 nM; in test [3], 50 to 500 nM; in test [4], 50 to 500 nM.

Consider `CCn1c(=O)c(-c2ccc(-c3noc(C)n3)cc2)cc2cnc(Nc3ccc(C4CCN(C)CC4)cc3)nc21`, for which the IC50 in test [1] is at least 5000 nM; in test [2], 50 to 500 nM; in test [3], 50 to 500 nM; in test [4], 50 to 500 nM.

As for `CCn1c(=O)c(-c2ccc(-c3noc(C)n3)cc2Cl)cc2cnc(Nc3ccc(CCN4CCOCC4)cc3)nc21`, the IC50 in test [1] was at least 5000 nM; in test [2], 50 to 500 nM; in test [3], 50 to 500 nM; in test [4], 50 to 500 nM.

For `CCn1c(=O)c(-c2ccc(-c3cccnc3F)cc2Cl)cc2cnc(Nc3ccc(CCN4CCCC4)cc3)nc21`, the IC50 in test [1] is 50 to 500 nM; in test [2], below 50 nM; in test [3], below 50 nM; in test [4], below 50 nM.

Consider `CCn1c(=O)c(-c2ccc(-c3cnc(C)s3)cc2Cl)cc2cnc(Nc3ccc(CCN4CCCC4)cc3)nc21`, for which the IC50 in test [1] is 500 to 5000 nM; in test [2], below 50 nM; in test [3], below 50 nM; in test [4], below 50 nM.

Take `Cc1ncc(-c2ccc(-c3cc4cnc(Nc5ccc(C6CCNCC6)cc5)nc4n(C)c3=O)c(Cl)c2)s1`: the IC50 in test [1] was 500 to 5000 nM; in test [2], below 50 nM; in test [3] it was below 50 nM; in test [4] it was 50 to 500 nM.

Regarding `CCn1c(=O)c(-c2ccc(-c3cnc(C)s3)cc2Cl)cc2cnc(Nc3ccc(CCN4CCOCC4)cc3)nc21`, the IC50 in test [1] is at least 5000 nM; in test [2] it was 50 to 500 nM; in test [3], 50 to 500 nM; in test [4], 50 to 500 nM.

As to `CCn1c(=O)c(-c2ccc(-c3cccnc3C)cc2Cl)cc2cnc(Nc3ccc(CCN4CCOCC4)cc3)nc21`, the IC50 in test [1] was at least 5000 nM; in test [2], 50 to 500 nM; in test [3] it was 50 to 500 nM; in test [4] it was 50 to 500 nM.

In the case of `CCn1c(=O)c(-c2ccc(-c3cccnc3C)cc2C)cc2cnc(Nc3ccc(C4CCN(C)CC4)cc3)nc21`, the IC50 in test [1] was at least 5000 nM; in test [2] it was 50 to 500 nM; in test [3], below 50 nM; in test [4], 50 to 500 nM.

With `CCn1c(=O)c(-c2ccc(-c3noc(C)n3)cc2C)cc2cnc(Nc3ccc(C4CCN(C)CC4)cc3)nc21`, the IC50 in test [1] was 500 to 5000 nM; in test [2], below 50 nM; in test [3] it was below 50 nM; in test [4], below 50 nM.

As to `CCN(CC)CCc1ccc(Nc2ncc3cc(-c4ccc(-c5cccnc5C)cc4Cl)c(=O)n(CC)c3n2)cc1`, the IC50 in test [1] was at least 5000 nM; in test [2], below 50 nM; in test [3], below 50 nM; in test [4], 50 to 500 nM.

Turning to `CCN(CC)CCc1ccc(Nc2ncc3cc(-c4ccc(-c5cccnc5F)cc4Cl)c(=O)n(CC)c3n2)cc1`, the IC50 in test [1] is 50 to 500 nM; in test [2], below 50 nM; in test [3], below 50 nM; in test [4], below 50 nM.

`CCN(CC)CCc1ccc(Nc2ncc3cc(-c4ccc(-c5noc(C)n5)cc4Cl)c(=O)n(CC)c3n2)cc1`: the IC50 in test [1] is 500 to 5000 nM; in test [2], below 50 nM; in test [3] it was below 50 nM; in test [4] it was below 50 nM.

As to `CCN(CC)CCc1ccc(Nc2ncc3cc(-c4ccc(-c5cnc(C)s5)cc4Cl)c(=O)n(CC)c3n2)cc1`, the IC50 is 500 to 5000 nM in test [1], below 50 nM in test [2], below 50 nM in test [3] and below 50 nM in test [4].

On to `CCn1c(=O)c(-c2ccc(-c3noc(C)n3)cc2F)cc2cnc(Nc3ccc(C4CCN(C)CC4)cc3)nc21`, for which the IC50 in test [1] is at least 5000 nM; in test [2], below 50 nM; in test [3] it was below 50 nM; in test [4] it was 50 to 500 nM.

Turning to `CCn1c(=O)c(-c2ccc(-c3cnccn3)cc2F)cc2cnc(Nc3ccc(C4CCN(C)CC4)cc3)nc21`, the IC50 in test [1] was 50 to 500 nM; in test [2], below 50 nM; in test [3] it was below 50 nM; in test [4], below 50 nM.

As to `Cc1ncccc1-c1cc(Cl)c(-c2cc3cnc(Nc4ccc(C5CCN(C)CC5)cc4)nc3n(C)c2=O)cc1F`, the IC50 in test [1] was at least 5000 nM; in test [2], 50 to 500 nM; in test [3], 50 to 500 nM; in test [4], 500 to 5000 nM.

Regarding `CN1CCC(c2ccc(Nc3ncc4cc(-c5cc(F)c(-c6cccnc6F)cc5Cl)c(=O)n(C)c4n3)cc2)CC1`, the IC50 was at least 5000 nM in test [1], below 50 nM in test [2], below 50 nM in test [3] and 50 to 500 nM in test [4].

For the compound `CCn1c(=O)c(-c2ccc(-c3cc(C)ncn3)cc2Cl)cc2cnc(Nc3ccc(C4CCN(C)CC4)cc3)nc21`, the half-inhibitory concentration (IC50) in test [1] is at least 5000 nM; in test [2] it was 50 to 500 nM; in test [3], below 50 nM; in test [4], 50 to 500 nM.

As to `CCn1c(=O)c(-c2ccc(-c3ccccc3F)cc2Cl)cc2cnc(Nc3ccc(C4CCN(C)CC4)cc3)nc21`, the IC50 was 500 to 5000 nM in test [1], below 50 nM in test [2], below 50 nM in test [3] and below 50 nM in test [4].

As to `CCn1c(=O)c(-c2ccc(-c3cnc(C)o3)cc2Cl)cc2cnc(Nc3ccc(C4CCN(C)CC4)cc3)nc21`, the IC50 in test [1] is at least 5000 nM; in test [2], 50 to 500 nM; in test [3], below 50 nM; in test [4], 50 to 500 nM.

`CCn1c(=O)c(-c2ccc(-c3cc(C(F)(F)F)ncn3)cc2Cl)cc2cnc(Nc3ccc(C4CCN(C)CC4)cc3)nc21`: the IC50 is at least 5000 nM in test [1], 50 to 500 nM in test [2], 50 to 500 nM in test [3] and 50 to 500 nM in test [4].

`CCn1c(=O)c(-c2ccc(-c3cc(NC4CC4)ncn3)cc2Cl)cc2cnc(Nc3ccc(C4CCN(C)CC4)cc3)nc21`: the IC50 in test [1] is at least 5000 nM; in test [2] it was 50 to 500 nM; in test [3], 50 to 500 nM; in test [4], 50 to 500 nM.

Turning to `CCn1c(=O)c(-c2ccc(-c3cc(C)nc(C)n3)cc2Cl)cc2cnc(Nc3ccc(C4CCN(C)CC4)cc3)nc21`, the IC50 in test [1] is at least 5000 nM; in test [2], below 50 nM; in test [3], below 50 nM; in test [4], 50 to 500 nM.

In the case of `CCOC(=O)c1cncnc1-c1ccc(-c2cc3cnc(Nc4ccc(C5CCN(C)CC5)cc4)nc3n(CC)c2=O)c(Cl)c1`, the IC50 in test [1] is at least 5000 nM; in test [2], 500 to 5000 nM; in test [3], 500 to 5000 nM; in test [4] it was 500 to 5000 nM.

For the compound `CCn1c(=O)c(-c2ccc(-c3cc(N(C)C)ncn3)cc2Cl)cc2cnc(Nc3ccc(C4CCN(C)CC4)cc3)nc21`, the IC50 was at least 5000 nM in test [1], 50 to 500 nM in test [2], below 50 nM in test [3] and 50 to 500 nM in test [4].

As for `CCn1c(=O)c(-c2ccc(-c3ncncc3F)cc2Cl)cc2cnc(Nc3ccc(C4CCN(C)CC4)cc3)nc21`, the IC50 is 500 to 5000 nM in test [1], below 50 nM in test [2], below 50 nM in test [3] and below 50 nM in test [4].

As to `CCn1c(=O)c(-c2ccc(-c3ccnc(C(F)(F)F)n3)cc2Cl)cc2cnc(Nc3ccc(C4CCN(C)CC4)cc3)nc21`, the IC50 in test [1] is at least 5000 nM; in test [2] it was below 50 nM; in test [3] it was below 50 nM; in test [4], 50 to 500 nM.

As to `CCn1c(=O)c(-c2ccc(-c3noc(C)n3)nc2)cc2cnc(Nc3ccc(C4CCN(C)CC4)cc3)nc21`, the IC50 was at least 5000 nM in test [1], 500 to 5000 nM in test [2], 500 to 5000 nM in test [3] and 500 to 5000 nM in test [4].

Consider `CCn1c(=O)c(-c2ccc(-c3cccnc3C)cn2)cc2cnc(Nc3ccc(C4CCN(C)CC4)cc3)nc21`, for which the IC50 in test [1] is at least 5000 nM; in test [2] it was above 5000 nM; in test [3], above 5000 nM; in test [4], above 5000 nM.

As for `Cc1ncc(-c2cc(Cl)c(-c3cc4cnc(Nc5ccc(C6CCN(C)CC6)cc5)nc4n(C)c3=O)cc2F)s1`, the IC50 in test [1] is at least 5000 nM; in test [2], below 50 nM; in test [3], below 50 nM; in test [4], below 50 nM.
